Values quoted from earlier work in US11844805B2, “Formulations of testosterone and methods of treatment therewith” (BOARD OF REGENTS, THE UNIVERSITY OF TEXAS SYSTEM, priority 2014, dated 2023).

What was measured:
[1] = intranasal administration; baseline mean 2.5 pmol/L
[2] = women, single dose, sublingual

C[C@]12CC[C@H]3[C@@H](CCC4=CC(=O)CC[C@@]43C)[C@@H]1CC[C@@H]2O [testosterone]
maximum testosterone concentration (mean) [1]: 168.2 pmol/L | effect on subjective sexual desire, genital responsiveness and genital arousal [2]: increase subjective sexual desire, genital responsiveness, and genital arousal
